{
  "source": "patent US4663309A",
  "about": "“Novel peptide hormones with calcitonin-like activity” (University Patents, Inc., priority 1985, dated 1987)",
  "origin": "cited, not measured here",
  "key": {"[1]": {"conditions": "literature value; cited from earlier work"}, "[2]": {"target": "T1, calcitonin receptors (brain particulate fraction) (Rattus norvegicus, UniProt P32214)", "T1 sequence (P32214 25-516)": "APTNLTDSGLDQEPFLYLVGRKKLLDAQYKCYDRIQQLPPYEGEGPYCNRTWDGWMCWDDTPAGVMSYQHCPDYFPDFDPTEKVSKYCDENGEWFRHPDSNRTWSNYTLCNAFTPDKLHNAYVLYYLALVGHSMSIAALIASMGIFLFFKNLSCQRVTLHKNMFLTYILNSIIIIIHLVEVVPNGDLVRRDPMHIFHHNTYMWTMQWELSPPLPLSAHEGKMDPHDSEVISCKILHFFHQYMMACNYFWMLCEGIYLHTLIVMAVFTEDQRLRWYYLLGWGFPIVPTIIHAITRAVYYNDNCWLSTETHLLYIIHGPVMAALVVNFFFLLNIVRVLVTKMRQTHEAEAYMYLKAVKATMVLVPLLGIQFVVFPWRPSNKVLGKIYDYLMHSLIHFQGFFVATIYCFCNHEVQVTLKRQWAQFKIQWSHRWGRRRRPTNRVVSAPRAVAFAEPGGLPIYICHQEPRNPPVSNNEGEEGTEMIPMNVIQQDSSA", "design": "from tissue", "conditions": "rat brain homogenates; literature value; read-out: IC50, [125I]-SCT-I binding to rat brain, value found by Nakamuta et al.; cited from earlier work"}},
  "data": [
    {"substance": "porcine calcitonin [PCT]", "values": [
      {"measurement": "α-helicity in 50% 2-chloroethanol (Brewer and Edelhoch)", "setting": "[1]", "value": 50, "unit": "%"},
      {"measurement": "IC50", "setting": "[2]", "value": 17, "unit": "nM"}
    ]}
  ]
}
